Source: ChEMBL document CHEMBL1201862, “PubChem BioAssay data set” (2004)
Calls of active or inactive are those of the source.

How the values were obtained:
[1] = molecular target: FAD-linked sulfhydryl oxidase ALR (Homo sapiens, UniProt P55789); assay: ALR-catalysed DTT oxidation blockers – biochemical, H2O2 detection, luminescence, cherry-pick, dose response (AID 493248)
[2] = molecular target: T1, Coagulation factor XII (Homo sapiens, UniProt P00748); assay: activated coagulation factor XII inhibitor potency, concentration-effect curve, cell-free (AID 716); type: functional
T1 sequence (P00748 whole entry): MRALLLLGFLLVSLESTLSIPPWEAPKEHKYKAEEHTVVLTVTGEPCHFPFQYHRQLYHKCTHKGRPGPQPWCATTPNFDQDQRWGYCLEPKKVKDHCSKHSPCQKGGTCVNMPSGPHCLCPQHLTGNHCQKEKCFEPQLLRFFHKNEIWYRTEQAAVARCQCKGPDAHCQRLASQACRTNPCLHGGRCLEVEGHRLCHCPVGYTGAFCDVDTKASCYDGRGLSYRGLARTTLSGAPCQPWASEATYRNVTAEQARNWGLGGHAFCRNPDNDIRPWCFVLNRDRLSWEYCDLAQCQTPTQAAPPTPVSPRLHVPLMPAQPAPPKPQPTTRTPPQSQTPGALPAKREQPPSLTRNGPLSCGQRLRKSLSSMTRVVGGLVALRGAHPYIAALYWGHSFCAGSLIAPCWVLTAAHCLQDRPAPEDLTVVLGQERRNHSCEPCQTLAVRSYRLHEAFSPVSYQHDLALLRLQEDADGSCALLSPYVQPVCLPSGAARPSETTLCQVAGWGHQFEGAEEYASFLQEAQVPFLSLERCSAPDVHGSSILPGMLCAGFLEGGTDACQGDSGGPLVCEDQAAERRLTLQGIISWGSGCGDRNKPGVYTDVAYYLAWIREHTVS

[3] = molecular target: Lysosomal acid glucosylceramidase (Homo sapiens, UniProt P04062); assay: Dose response cell-based high throughput screening assay to identify enhancers of beta-glucosidase activity. [Related pubchem assays: 784 ]; type: functional
[4] = molecular target: Intestinal-type alkaline phosphatase (Homo sapiens, UniProt P09923); assay: Dose Response confirmation of uHTS hits from a small molecule inhibitors of human intestinal alkaline phosphatase via a luminescent assay. [Related pubchem assays (depositor defined):AID2544, AID2574]; type: functional
[5] = molecular target: Voltage-gated N-type calcium channel alpha-1B subunit/Amyloid beta A4 precursor protein-binding family A member 1 (Homo sapiens, UniProt Q00975+Q02410); assay: disruptors of Mint-PDZ/N-type channel peptide interaction – biochemical, HTRF, set 2, SAR follow-up (AID 434980); type: functional
[6] = test system: Salmon testes DNA; assay: acridine orange-DNA binding displacement – biochemical, fluorescence polarization, cherry-picked samples, set 2, artefact control for KSHV LANA DNA-binding inhibitor project, dose response (AID 504727); parameters: species or system Salmonidae
[7] = molecular target: T2, Streptokinase A (Streptococcus pyogenes serotype M1, UniProt P10520); assay: viability-normalized secreted streptokinase activity reduction – plasminogen activation absorbance, OD405, dose response (AID 1914); type: functional, Streptococcus pyogenes M1 GAS;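 further: secreted streptokinase activity via plasminogen activation per viability signal from cell pellet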
T2 sequence (P10520 whole entry): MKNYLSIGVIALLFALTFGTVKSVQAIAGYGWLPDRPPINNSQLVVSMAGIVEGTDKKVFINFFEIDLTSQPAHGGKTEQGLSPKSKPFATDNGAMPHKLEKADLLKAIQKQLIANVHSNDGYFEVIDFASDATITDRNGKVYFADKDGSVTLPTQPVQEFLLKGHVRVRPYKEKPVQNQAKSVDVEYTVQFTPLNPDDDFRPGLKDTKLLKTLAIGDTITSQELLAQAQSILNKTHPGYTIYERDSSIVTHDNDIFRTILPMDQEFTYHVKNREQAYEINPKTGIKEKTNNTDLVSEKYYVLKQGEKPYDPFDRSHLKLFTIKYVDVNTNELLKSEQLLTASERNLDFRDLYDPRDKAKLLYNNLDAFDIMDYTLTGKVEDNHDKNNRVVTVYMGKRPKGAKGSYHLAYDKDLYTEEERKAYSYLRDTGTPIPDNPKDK

[8] = test system: HeLa; assay: viability loss in HeLa cells – cell-based, 24 h, cherry-picked samples, cytotoxicity control, dose response (AID 504726); type: functional; details: Homo sapiens;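 further: potency for cytotoxicity as loss of luminescence signal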
[9] = test system: Streptococcus; assay: GAS UMAA2166 growth inhibition – luminescence, BacTiterGlo, counter-screen for streptokinase expression inhibitor project, dose response (AID 1915); type: functional, organism-based;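 further: potency for reduction of bacterial viability or growth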
[10] = molecular target: ORF 73 (Human herpesvirus 8, UniProt O40947); assay: KSHV LANA DNA-binding disruption – biochemical, fluorescence polarization, cherry-picked samples, dose response (AID 504725); parameters: species or system Human gammaherpesvirus 8;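 further: fluorescence polarization of a labeled DNA duplex reporting LANA DNA binding; potency is for inhibitors that block LANA binding to the DNA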
[11] = molecular target: Keap1/Nrf2 (Homo sapiens, UniProt Q14145); assay: disruptors of Keap1 binding to Nrf2 peptide – biochemical, fluorescence polarization, cherry-picked samples, dose response (AID 588683)
[12] = test system: Streptococcus sp. 'group A'; assay: Streptococcus pyogenes SK(-)GAS viability under kanamycin – luminescence, BacTiterGlo, confirmation, counter-screen for streptokinase expression inhibitor project, dose response (AID 1900); type: functional, organism-based
[13] = Luminescence Cell-Based Dose Retest to Confirm Inhibitors of Cancer Stem Cells. [Related pubchem assays (depositor defined):AID2717, AID2721]; type: functional; details: Homo sapiens
[14] = molecular target: T3, Rac GTPase-activating protein 1 (Homo sapiens, UniProt Q9H0H5); assay: blockers of MgcRacGAP-driven Rac1 GTP hydrolysis – biochemical, ADP Hunter fluorescence, primary and confirmatory, confirmation (AID 624330); type: functional
T3 sequence (Q9H0H5 whole entry): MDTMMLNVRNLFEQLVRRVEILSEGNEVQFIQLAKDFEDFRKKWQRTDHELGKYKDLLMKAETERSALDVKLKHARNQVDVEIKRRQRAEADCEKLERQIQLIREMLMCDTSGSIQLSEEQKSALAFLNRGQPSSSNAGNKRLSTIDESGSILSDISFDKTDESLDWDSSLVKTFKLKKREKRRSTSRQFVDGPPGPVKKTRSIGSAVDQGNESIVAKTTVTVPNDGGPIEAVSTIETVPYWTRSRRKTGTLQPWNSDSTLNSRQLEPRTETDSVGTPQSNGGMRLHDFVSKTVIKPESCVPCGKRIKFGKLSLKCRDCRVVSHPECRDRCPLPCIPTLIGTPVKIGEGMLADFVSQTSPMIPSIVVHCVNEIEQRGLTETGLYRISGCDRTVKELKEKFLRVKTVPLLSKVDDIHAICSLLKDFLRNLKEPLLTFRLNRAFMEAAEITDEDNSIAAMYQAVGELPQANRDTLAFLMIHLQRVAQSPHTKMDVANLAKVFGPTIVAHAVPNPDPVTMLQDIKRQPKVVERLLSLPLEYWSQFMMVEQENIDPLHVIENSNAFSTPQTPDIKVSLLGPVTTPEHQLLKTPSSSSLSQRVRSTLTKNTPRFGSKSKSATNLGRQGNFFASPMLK

[15] = molecular target: Cytochrome P450 2C9 (Homo sapiens, UniProt P11712); details: Potency
[16] = molecular target: Metabotropic glutamate receptor 4 (Rattus norvegicus, UniProt P31423); assay: Modulation of the Metabotropic Glutamate Receptor mGluR4: Rat PAM Potency. [Related pubchem assays (depositor defined):AID2437, AID2807]; type: functional

Chain of Intestinal-type alkaline phosphatase (P09923 whole entry): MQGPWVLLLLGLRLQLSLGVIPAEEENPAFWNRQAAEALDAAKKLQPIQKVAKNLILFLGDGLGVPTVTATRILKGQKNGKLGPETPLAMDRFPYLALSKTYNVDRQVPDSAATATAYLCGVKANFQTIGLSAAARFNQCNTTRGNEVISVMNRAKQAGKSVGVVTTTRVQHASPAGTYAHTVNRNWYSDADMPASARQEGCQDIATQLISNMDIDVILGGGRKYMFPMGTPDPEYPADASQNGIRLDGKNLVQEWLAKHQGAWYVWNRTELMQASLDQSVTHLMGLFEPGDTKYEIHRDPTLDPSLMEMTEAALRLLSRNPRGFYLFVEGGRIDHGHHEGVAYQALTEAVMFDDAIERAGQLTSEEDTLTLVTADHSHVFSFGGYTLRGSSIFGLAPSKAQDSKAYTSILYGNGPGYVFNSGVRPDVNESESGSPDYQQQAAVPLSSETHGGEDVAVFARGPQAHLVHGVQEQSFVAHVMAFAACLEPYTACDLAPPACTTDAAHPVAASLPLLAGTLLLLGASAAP
Chain of FAD-linked sulfhydryl oxidase ALR (P55789 whole entry): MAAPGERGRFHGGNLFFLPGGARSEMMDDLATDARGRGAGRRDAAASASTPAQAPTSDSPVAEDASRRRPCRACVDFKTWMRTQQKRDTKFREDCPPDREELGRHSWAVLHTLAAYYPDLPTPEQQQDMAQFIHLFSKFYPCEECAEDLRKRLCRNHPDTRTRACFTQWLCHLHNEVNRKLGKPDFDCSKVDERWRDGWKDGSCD
Chain of ORF 73 (O40947 whole entry): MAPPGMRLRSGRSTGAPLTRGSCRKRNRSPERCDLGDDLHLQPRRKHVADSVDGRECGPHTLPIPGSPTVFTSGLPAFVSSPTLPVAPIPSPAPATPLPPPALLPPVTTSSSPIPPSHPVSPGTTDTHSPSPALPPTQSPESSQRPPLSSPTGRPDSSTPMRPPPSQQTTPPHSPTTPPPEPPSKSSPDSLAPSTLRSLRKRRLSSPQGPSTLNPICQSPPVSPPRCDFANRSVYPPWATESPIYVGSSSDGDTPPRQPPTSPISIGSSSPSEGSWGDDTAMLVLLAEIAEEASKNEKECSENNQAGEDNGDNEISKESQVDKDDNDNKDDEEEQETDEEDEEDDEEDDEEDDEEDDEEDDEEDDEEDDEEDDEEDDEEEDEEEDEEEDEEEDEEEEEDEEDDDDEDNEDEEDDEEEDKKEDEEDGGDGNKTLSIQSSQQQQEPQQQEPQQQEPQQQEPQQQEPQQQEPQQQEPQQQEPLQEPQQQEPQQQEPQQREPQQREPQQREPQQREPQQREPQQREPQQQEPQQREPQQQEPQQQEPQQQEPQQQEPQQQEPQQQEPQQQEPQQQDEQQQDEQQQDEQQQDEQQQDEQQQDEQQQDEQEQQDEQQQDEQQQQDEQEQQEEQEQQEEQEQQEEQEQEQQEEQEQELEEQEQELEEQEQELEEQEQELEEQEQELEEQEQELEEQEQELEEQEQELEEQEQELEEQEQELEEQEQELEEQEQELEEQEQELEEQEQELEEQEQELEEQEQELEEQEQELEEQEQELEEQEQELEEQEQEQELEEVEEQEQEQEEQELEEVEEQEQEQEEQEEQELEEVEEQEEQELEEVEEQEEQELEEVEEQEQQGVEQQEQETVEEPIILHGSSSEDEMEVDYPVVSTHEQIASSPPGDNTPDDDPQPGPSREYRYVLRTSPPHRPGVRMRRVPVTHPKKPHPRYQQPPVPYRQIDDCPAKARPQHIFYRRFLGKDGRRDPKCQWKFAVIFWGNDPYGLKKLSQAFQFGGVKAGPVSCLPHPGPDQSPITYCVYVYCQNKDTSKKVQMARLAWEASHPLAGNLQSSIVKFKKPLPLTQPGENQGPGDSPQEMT
Chain of Voltage-gated N-type calcium channel alpha-1B subunit/Amyloid beta A4 precursor protein-binding family A member 1 (Q00975 whole entry): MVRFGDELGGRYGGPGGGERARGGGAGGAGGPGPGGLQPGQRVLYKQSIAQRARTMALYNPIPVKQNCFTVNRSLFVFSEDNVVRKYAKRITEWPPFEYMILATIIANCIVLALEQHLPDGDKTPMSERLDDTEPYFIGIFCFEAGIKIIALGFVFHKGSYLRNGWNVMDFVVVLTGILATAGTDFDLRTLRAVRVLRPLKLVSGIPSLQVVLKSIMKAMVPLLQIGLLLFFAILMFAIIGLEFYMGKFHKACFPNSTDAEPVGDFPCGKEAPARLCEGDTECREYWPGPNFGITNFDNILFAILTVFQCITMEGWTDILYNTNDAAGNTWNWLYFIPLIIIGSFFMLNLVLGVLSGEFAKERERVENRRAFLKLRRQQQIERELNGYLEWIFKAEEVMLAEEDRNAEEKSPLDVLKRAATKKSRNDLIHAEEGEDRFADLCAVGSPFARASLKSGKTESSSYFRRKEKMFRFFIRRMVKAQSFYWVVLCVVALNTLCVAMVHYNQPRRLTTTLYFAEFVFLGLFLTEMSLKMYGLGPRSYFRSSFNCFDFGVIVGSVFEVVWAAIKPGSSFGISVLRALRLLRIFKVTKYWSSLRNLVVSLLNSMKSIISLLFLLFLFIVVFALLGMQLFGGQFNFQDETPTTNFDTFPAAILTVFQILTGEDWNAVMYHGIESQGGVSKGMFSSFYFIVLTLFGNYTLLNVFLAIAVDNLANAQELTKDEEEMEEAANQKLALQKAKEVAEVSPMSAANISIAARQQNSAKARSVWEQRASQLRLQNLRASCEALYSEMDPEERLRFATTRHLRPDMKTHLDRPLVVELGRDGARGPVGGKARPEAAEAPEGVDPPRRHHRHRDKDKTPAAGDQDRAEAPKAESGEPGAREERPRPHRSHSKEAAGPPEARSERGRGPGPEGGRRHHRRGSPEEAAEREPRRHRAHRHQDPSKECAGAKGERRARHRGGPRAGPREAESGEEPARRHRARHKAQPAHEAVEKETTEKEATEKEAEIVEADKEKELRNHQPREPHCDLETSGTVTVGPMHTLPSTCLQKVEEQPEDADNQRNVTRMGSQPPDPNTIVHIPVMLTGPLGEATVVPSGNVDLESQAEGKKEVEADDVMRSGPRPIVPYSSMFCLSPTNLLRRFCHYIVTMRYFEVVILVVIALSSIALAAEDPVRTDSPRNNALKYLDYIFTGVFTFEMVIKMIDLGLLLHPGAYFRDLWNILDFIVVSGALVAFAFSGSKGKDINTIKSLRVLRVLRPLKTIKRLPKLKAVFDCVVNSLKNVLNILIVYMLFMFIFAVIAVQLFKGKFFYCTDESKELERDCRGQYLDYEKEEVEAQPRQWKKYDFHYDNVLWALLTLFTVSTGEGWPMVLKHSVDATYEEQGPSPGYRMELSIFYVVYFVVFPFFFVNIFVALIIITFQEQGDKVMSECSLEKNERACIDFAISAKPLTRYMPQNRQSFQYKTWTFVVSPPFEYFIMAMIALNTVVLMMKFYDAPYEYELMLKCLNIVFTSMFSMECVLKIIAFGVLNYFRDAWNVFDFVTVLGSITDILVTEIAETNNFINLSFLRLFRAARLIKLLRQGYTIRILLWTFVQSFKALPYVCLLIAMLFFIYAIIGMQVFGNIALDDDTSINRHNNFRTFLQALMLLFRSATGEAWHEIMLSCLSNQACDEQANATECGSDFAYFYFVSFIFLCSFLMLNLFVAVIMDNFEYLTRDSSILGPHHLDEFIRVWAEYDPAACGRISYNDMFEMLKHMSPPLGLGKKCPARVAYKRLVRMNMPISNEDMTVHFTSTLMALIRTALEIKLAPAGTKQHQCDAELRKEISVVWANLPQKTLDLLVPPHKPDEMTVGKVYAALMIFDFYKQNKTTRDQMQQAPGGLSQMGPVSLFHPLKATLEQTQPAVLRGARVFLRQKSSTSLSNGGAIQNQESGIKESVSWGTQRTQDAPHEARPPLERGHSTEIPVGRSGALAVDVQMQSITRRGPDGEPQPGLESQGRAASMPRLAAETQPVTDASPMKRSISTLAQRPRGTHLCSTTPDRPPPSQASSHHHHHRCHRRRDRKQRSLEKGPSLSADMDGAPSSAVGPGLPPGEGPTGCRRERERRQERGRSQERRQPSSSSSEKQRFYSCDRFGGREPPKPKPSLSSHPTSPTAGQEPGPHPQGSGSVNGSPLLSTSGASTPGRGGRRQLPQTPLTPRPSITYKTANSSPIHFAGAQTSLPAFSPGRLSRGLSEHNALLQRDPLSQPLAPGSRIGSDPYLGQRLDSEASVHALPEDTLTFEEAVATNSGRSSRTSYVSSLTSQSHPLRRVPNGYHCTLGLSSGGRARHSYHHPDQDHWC
Chain of Voltage-gated N-type calcium channel alpha-1B subunit/Amyloid beta A4 precursor protein-binding family A member 1 (Q02410 whole entry): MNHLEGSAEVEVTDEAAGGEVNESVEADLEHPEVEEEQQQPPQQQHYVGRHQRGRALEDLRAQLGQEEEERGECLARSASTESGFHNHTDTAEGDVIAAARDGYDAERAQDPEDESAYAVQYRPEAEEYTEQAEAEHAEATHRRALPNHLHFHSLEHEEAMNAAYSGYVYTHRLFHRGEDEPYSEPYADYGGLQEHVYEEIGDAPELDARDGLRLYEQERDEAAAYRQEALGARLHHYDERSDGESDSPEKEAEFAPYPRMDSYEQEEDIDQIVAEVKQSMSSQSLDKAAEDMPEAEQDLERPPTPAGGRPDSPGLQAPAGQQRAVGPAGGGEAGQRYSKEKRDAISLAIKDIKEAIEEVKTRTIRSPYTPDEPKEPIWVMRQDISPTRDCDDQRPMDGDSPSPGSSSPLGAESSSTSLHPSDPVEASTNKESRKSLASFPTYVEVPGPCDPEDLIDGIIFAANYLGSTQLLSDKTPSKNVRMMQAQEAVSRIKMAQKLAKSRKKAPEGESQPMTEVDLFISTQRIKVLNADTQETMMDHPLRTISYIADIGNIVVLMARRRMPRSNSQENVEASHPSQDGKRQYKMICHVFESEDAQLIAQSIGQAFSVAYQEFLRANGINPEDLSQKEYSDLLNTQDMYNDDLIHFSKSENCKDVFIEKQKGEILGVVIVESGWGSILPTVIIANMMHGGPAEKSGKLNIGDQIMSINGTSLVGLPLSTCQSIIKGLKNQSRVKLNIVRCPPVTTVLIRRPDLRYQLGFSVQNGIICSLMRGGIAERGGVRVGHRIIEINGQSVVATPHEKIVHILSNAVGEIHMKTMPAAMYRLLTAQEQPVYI

In the case of `CC(C)C1C(C#N)=C(N)Oc2[nH]nc(-c3cccs3)c21` (stereo unspecified), the AC50 [1] is reported as 6.41 µM (active) and the IC50 [2] is reported as > 50 µM (inactive).

With `CC(=O)N1CCc2cc(S(=O)(=O)CCC(=O)N3CCN(C(=O)c4ccco4)CC3)ccc21` the EC50 [3] was > 50 µM (not active).

In the case of `CCOc1cccc(OCCOCCOc2ccccc2C(C)=O)c1`, the IC50 [4] is reported as > 100 µM (inactive).

In the case of `CC(C)CCNC(=O)c1cc(-c2ccco2)nc2ccccc12`, the IC50 [5] is reported as > 56.8 µM (inactive).

For `COc1ccc(NC(=O)c2cccc(-c3ccc(O)cc3)c2)cn1`, the AC50 [6] was 45.4 µM (active), the EC50 [7] was > 150 µM (not active) and the AC50 [8] was 144 µM (active). The EC50 [9] was > 150 µM (not active), the AC50 [10] was 34.3 µM (active) and the AC50 [11] was 43.8 µM (active). For the same compound, the EC50 [12] was 16.9 µM (active), the AC50 [13] was 4.31 µM (active) and the IC50 [14] was 42.3 µM (active).

In the case of `CC(C)[C@@H](CC(=O)N[C@@H]1CCCC[C@H]1C(=O)N[C@H](CC(=O)N[C@@H](CCC(=O)O)CC(=O)O)Cc1ccccc1)NC(=O)C[C@H](CO)NC(=O)[C@@H]1CNCC[C@H]1N`, the AC50 [15] is reported as 31.6 µM (inconclusive).

In the case of `O=C(Nc1ccc(NC(=O)c2ccccc2Cl)c(F)c1)c1ccccn1`, the EC50 [16] is reported as 0.74 µM (active).
